Reference: PMC11775380, “Discovery of Novel Nav1.7-Selective Inhibitors with the 1H-Indole-3-Propionamide Scaffold for Effective Pain Relief” (Research, 2025)

Tests used:
Format in all cases: cell-based
Settings in all cases: 1 μM
Nav1.7 Y1548A = biological target: T1, Nav1.7 Y1548A (Homo sapiens, UniProt Q15858, Y1548A); assay: Single site-directed mutagenesis, inhibition by patch clamp
T1 construct: expressed in transfected cells; host or cells: HEK293T
Description: (§1) The amino acids depicted in Fig. 4C were individually mutated to alanine or glycine to perform single site-directed mutagenesis. Subsequently, the inhibition rates of these mutations against WN2-R were measured at a concentration of 1 μM (Fig. 4D). […] While single site-directed mutagenesis did affect the antagonistic activity of WN2-R, it did so to a limited extent, as the presumed induced-fit effect typically arises from the concerted movement of multiple residues.
(§2) Whole-cell patch-clamp recordings were conducted at 25 ± 2 °C, utilizing an EPC 10USB patch-clamp amplifier (HEKA Elektronik, Lambrecht, Germany). Pipettes, with access resistance between 2.0 and 3.0 MΩ, were pulled from borosilicate glass capillary tubes using a 2-step vertical microelectrode puller (PC-10, Narishige Group, Tokyo, Japan). Voltage-clamp recordings were obtained with PatchMaster software v2 × 73 (HEKA Elektronik) 5 min after establishing whole-cell configuration, sampled at 20 kHz, and filtered at 5 kHz. To minimize voltage errors, 80% series resistance compensation was applied. Pipettes were filled with 140 mM CsF, 10 mM NaCl, 1 mM EGTA, and 10 mM HEPES (pH=7.4, adjusted with CsOH). The external solution contained 140 mM NaCl, 2 mM CaCl2, 1 mM MgCl2, 5 mM KCl, 10 mM HEPES, and 10 mM glucose (pH=7.4, adjusted with NaOH). IC50 values were determined in HEK293T or ND7/23 cell lines by voltage clamping at −80 mV, followed by stepping to the V1/2 of inactivation for 8 s to facilitate compound binding.

Nav1.7 F1609A = biological target: T2, Nav1.7 F1609A (Homo sapiens, UniProt Q15858, F1609A); assay: as above
T2 construct: expressed in transfected cells; host or cells: HEK293T
Description: as §1, §2

Nav1.7 T1544A = biological target: T3, Nav1.7 T1544A (Homo sapiens, UniProt Q15858, T1544A); assay: as above
T3 construct: expressed in transfected cells; host or cells: HEK293T
Description: as §1, §2

hNav1.8 = biological target: T4, hNav1.8 (Homo sapiens, UniProt Q9Y5Y9); assay: Subtype selectivity, patch clamp (ND7/23 cells)
T4 construct: expressed in transfected cells; host or cells: ND7/23
Description: VGSC inhibitors required credible subtype selectivity to void side effects caused by binding to nontarget subtypes. At a concentration of 1 μM, the inhibitory rates of WN2-R on hNav1.2, hNav1.3, hNav1.4, hNav1.5, mNav1.6, and hNav1.8 were determined (n = 3 to 6, Fig. 7A). […] To further evaluate the drug safety profile, high-dose acute toxicity experiments were conducted. Mice were administered a high dose of 30 mg/kg WN2-R through i.p. administration. The rotarod test, forced-swim test, and open field test were used to explore the effect of high-dose WN2-R on the motor ability of mice (n = 4). The rotarod test evaluated the drug's effect on motor coordination, the forced-swim test examined its impact on the overall motor system, and the open field test assessed the drug's influence on the motor and nervous systems. […]
Whole-cell patch-clamp recordings were conducted at 25 ± 2 °C, utilizing an EPC 10USB patch-clamp amplifier (HEKA Elektronik, Lambrecht, Germany). […] IC50 values were determined in HEK293T or ND7/23 cell lines by voltage clamping at −80 mV, followed by stepping to the V1/2 of inactivation for 8 s to facilitate compound binding.

T3 sequence (Q15858 whole entry T1544A): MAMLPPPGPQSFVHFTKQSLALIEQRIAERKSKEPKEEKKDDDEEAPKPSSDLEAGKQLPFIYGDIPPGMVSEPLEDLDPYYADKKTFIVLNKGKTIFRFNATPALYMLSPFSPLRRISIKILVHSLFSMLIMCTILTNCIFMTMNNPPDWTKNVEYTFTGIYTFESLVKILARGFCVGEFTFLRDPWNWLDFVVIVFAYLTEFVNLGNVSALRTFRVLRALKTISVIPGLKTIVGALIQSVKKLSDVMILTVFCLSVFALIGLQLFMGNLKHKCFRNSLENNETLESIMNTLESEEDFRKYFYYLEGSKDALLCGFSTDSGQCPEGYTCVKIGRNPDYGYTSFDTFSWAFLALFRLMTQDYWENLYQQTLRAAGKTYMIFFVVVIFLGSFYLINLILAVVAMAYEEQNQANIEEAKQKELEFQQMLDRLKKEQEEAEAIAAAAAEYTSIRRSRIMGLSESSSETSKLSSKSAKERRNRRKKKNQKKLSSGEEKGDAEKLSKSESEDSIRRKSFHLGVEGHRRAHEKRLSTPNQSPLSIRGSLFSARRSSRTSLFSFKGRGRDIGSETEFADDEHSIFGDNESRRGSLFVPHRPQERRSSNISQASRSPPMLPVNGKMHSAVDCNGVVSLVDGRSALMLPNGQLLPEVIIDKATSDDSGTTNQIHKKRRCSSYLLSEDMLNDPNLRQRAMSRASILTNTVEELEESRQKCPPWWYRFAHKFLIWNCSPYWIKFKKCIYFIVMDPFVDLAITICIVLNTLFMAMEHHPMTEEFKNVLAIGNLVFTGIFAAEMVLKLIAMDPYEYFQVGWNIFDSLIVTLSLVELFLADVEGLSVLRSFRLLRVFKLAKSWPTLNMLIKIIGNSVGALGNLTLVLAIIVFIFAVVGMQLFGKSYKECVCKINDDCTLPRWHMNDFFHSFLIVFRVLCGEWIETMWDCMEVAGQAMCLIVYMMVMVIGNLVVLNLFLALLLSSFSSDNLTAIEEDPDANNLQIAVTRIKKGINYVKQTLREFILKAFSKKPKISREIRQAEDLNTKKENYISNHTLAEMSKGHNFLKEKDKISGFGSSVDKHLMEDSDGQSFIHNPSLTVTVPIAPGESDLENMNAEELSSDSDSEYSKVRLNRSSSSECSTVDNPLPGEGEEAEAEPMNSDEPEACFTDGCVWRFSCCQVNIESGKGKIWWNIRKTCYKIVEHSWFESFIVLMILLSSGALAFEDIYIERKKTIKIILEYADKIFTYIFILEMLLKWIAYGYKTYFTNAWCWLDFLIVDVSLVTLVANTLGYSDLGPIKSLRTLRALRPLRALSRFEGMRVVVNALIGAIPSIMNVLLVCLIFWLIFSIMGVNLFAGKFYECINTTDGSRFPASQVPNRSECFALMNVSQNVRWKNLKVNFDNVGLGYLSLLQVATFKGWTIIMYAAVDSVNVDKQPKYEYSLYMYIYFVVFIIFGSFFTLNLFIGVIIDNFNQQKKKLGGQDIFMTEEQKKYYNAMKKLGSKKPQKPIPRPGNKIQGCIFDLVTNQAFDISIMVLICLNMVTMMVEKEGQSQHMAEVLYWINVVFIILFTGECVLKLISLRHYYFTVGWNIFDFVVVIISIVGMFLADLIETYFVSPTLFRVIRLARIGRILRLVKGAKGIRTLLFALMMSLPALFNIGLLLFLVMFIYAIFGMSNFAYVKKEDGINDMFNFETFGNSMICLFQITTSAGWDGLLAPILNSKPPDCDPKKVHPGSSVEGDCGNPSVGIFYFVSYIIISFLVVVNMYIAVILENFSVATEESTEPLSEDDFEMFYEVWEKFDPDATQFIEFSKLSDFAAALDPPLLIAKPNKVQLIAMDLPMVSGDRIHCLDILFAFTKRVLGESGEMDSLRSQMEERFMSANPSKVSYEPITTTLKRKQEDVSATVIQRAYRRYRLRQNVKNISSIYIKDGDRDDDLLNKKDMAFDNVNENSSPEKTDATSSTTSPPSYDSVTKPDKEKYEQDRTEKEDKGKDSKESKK
T3 sequence (Q07699 19-218 partner): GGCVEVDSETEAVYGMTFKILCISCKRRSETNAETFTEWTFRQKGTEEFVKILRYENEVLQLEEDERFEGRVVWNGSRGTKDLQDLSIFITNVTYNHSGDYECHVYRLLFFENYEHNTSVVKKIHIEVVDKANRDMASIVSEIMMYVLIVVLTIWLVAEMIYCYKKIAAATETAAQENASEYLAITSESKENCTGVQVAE
T3 sequence (O60939 30-215 partner): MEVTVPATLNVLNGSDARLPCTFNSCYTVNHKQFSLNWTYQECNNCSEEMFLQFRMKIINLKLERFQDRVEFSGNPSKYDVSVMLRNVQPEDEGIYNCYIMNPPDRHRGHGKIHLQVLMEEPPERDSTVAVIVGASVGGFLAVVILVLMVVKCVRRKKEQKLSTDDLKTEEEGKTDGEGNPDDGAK
T4 sequence (Q9Y5Y9 whole entry): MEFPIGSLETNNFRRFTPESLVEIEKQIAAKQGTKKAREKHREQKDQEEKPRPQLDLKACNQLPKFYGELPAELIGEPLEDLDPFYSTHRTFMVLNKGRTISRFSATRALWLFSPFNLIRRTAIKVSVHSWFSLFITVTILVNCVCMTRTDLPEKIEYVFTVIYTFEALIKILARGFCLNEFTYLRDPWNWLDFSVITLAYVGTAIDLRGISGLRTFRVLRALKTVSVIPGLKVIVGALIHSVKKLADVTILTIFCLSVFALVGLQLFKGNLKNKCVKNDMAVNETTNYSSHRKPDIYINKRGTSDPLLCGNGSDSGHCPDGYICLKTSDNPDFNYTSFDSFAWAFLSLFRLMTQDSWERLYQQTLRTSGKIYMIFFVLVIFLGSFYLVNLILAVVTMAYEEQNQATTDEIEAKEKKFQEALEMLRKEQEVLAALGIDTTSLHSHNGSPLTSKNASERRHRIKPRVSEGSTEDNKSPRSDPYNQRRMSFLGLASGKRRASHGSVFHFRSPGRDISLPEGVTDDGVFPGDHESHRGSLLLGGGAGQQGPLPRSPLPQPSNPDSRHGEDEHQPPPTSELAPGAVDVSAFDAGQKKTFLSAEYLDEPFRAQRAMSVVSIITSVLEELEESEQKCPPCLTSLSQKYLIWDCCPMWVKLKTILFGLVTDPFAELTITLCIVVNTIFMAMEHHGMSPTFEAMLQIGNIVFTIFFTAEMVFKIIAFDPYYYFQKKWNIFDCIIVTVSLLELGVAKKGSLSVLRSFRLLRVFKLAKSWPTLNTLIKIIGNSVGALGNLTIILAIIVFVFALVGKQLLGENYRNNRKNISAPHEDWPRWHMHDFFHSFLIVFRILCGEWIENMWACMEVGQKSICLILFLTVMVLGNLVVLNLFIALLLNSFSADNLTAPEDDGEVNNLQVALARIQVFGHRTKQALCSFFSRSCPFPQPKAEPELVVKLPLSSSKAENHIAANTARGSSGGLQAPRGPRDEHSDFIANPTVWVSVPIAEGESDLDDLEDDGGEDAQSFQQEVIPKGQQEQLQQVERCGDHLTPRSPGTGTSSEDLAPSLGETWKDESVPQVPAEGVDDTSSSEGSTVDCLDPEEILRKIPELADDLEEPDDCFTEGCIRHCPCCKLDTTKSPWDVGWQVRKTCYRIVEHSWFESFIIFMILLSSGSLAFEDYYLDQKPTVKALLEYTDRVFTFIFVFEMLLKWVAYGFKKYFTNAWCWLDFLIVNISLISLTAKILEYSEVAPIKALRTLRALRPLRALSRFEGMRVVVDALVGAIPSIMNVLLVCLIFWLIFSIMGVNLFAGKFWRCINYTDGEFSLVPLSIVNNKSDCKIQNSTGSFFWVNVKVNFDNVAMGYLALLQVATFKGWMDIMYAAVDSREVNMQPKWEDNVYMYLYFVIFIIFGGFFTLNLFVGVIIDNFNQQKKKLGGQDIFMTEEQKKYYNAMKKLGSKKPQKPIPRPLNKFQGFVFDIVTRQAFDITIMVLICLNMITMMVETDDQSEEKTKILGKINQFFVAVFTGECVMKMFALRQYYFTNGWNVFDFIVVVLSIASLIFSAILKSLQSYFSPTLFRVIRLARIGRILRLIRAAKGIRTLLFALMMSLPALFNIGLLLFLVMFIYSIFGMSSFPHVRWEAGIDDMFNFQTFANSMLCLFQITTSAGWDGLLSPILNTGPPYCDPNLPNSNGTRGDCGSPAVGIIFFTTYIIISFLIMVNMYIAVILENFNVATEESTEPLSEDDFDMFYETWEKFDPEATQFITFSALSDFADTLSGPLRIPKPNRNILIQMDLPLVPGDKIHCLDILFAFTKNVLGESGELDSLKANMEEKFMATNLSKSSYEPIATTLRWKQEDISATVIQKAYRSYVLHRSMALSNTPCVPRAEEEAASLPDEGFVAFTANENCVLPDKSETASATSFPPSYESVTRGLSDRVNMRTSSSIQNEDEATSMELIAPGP
T1 sequence (Q15858 whole entry Y1548A): as the sequence (Q15858 whole entry T1544A) above, with A1544T, Y1548A counted along it
T1 sequence (Q07699 19-218 partner): as the sequence (Q07699 19-218 partner) above
T1 sequence (O60939 30-215 partner): as the sequence (O60939 30-215 partner) above
T2 sequence (Q15858 whole entry F1609A): as the sequence (Q15858 whole entry T1544A) above, with A1544T, F1609A counted along it
T2 sequence (Q07699 19-218 partner): as the sequence (Q07699 19-218 partner) above
T2 sequence (O60939 30-215 partner): as the sequence (O60939 30-215 partner) above

## Cc1ccc(Cn2cc([C@H](CC(=O)NCCN(C)C)c3ccc(F)cc3)c3ccccc32)cc1 [WN2-R]
Nav1.7 Y1548A
  Effect of the mutation on antagonistic activity: minimal impact
Nav1.7 F1609A
  Effect of the mutation on antagonistic activity: minimal impact
Nav1.7 T1544A
  Inhibition rate on the mutant relative to wild type: 60.7 % of WT
hNav1.8
  Inhibitory rate on hNav1.8: much lower than that on Nav1.7
